Results from article PMC7178883, “1,2,4-Triazole-based anticonvulsant agents with additional ROS scavenging activity are effective in a model of pharmacoresistant epilepsy” (Journal of Enzyme Inhibition and Medicinal Chemistry, 2020).
≈ marks a conversion by molar mass, not a printed value. Where two headings read alike, the source gives them in different places.

Columns and labels:
CUPRAC assay = details: pH 7.0, 450 nm
Protocol: Cupric reducing antioxidant capacity (CUPRAC) assay was performed according to the method by Apak et al.[20] with slight modifications. The CUPRAC reagent was prepared by mixing equal volume of CuCl2 (10 mM), neocuproine solution (7.5 mM), and acetate buffer (pH = 7.0). Subsequently, 50 µl of TP-10, TP-315, TP-427 (0.002–0.4 mg/ml) and 150 µl of CUPRAC reagent were pipetted into each well of 96-well plate (Nunc, Roskilde, Denmark). After pipetting, the plate was shaken for 5 min and then incubated for 25 min in the dark at room temperature. The absorbance of the solutions was read at 450 nm using a microplate reader (Epoch, BioTek Instruments, Inc., Winooski, VT, USA). At least six tests were performed for each concentration of the investigated compounds. The results were expressed as the IC50 (µg/ml) ± SD.

hCA I = biological target: T1, hCA I (Homo sapiens, UniProt P00915); assay: Carbonic anhydrase inhibition, stopped flow CO2 hydration; type: biochemical; details: 1 h incubation
T1 construct: made in house
Protocol: Carbonic anhydrase catalysed CO2 hydration activity was measured using an Applied Photophysics stopped-flow spectrometer. […] The uncatalyzed rates were determined in the same manner and subtracted from the total observed rates. Stock solutions of inhibitor (0.1 mM) were prepared in distilled-deionized water and dilutions up to 0.01 nM were done thereafter with the assay buffer. […] The inhibition constants were obtained by non-linear least-squares methods using PRISM 3 and the Cheng–Prusoff equation and represent the mean from at least three different determinations. All CA isoforms were recombinant ones obtained in-house[21]^,[22].

U-87 MG cells [1] = assay: Mitochondrial membrane potential, JC-1 dye (flow cytometry); type: cell-based, human; details: 10 μg/ml, 24 h, control 5.0%
Protocol: Mitochondrial membrane potential changes (ΔMMP) were assessed using the JC-1 MitoScreen Kit (BD Biosciences Systems, San Jose, CA, USA) as described previously. Sample of 10^6 cells/ml was suspended in a buffer mixture and incubated for 15 min at 37 °C with JC-1 dye provided by the kit manufacturer. Subsequently, the cells were washed and resuspended in a buffer. Samples prepared in this way were subjected to cytometric analysis using a cytometer BD FACSCanto II and FACSDiva software (both from BD Biosciences Systems, San Jose, CA, USA).

U-87 MG cells [2] = assay: Cell viability, MTT assay; type: cell-based, human; details: 10 µg/ml, 24 h
Protocol: Viability of glioblastoma cells U-87 MG (ATCC HTB-14) exposed to a fixed dose of 10 µg/ml of TP-10, TP-315, and TP-427 was measured using MTT assay. Stock solutions of the investigated compounds in DMSO were prepared in the concentration of 50 mg/ml. The cells were cultured at 37 °C in a 5% CO2 atmosphere using Eagle’s Minimum Essential Medium (EMEM) supplemented with 10% foetal bovine serum (FBS), 100 U/ml of penicillin, and […] of streptomycin. Suspension of U-87 MG cells at a density of 1 × 10^5 cells/ml was placed in 96-well plate (100 µl in each well) and incubated for 24 h. On the day of the experiment, the medium was removed from wells and replaced with medium containing a fixed concentration (10 µg/ml) of the respective 1,2,4-triazole derivative. After 24 h of incubation, 15 µl of MTT solution (5 mg/mL in PBS) was added to each well and the microplates were incubated for the next 3 h. Crystals of formazan formed in the metabolically active cells were solubilised with 10% SDS solution (100 µl) during overnight incubation and then the absorbance of dissolved formazan was measured at λ = 570 nm using a microplate reader (Epoch, BioTek Instruments, Inc., Winooski, VT, USA). The viability of cells treated with TP-10, TP-315, or TP-427 was expressed as the % of the viability of control cells (i.e. cells incubated without respective compounds). The experiments were run in triplicate and repeated three times. Sample observations and image capturing were performed using Olympus CKX53 microscope coupled with XM10 digital camera (Olympus).

HepG2 = system: HepG2; design: method as in PMID 30594731, PMID 28824309; details: 10 µg/ml; cited from earlier work
HEK-293 = system: HEK-293; design: method as in PMID 30594731, PMID 28824309; details: 10 µg/ml; cited from earlier work
motor coordination = details: cited from earlier work; for TD50 ± SEM: chimney test

T1 sequence (P00915 whole entry): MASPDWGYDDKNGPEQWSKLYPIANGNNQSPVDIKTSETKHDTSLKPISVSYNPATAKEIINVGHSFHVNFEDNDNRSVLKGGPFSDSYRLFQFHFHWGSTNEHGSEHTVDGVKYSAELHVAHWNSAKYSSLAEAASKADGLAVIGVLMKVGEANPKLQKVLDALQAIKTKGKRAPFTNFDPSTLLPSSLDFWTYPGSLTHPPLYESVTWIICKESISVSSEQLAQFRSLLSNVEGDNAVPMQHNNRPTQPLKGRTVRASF

Compound | IC50 ± SD, CUPRAC (CUPRAC assay) | Ki (hCA I) | cells with low mitochondrial membrane potential (ΔΨm) (U-87 MG cells [1]) | Relative viability vs. untreated cells (U-87 MG cells [2]) | toxicity for HepG2 cells (HepG2) | toxicity for HEK-293 cells (HEK-293) | TD50 (motor coordination; Figure 1, pretreatment time not given) | TD50 ± SEM (motor coordination; pretreatment time 15 min) | TD50 ± SEM (motor coordination; pretreatment time 30 min)
Cc1ccc(-n2c(-c3cccc(Cl)c3)n[nH]c2=S)cc1 [TP-10, 5-(3-chlorophenyl)-4-(4-methylphenyl)-2,4-dihydro-3H-1,2,4-triazole-3-thione] | 16.04 ± 0.61 µg/mL (≈ 53.1 µM) | 2190 nM | 8.0% | 99.16 ± 3.92% |  |  |  |  | 
CCCCCCn1c(-c2cccc(Cl)c2)n[nH]c1=S [TP-315, 5-(3-chlorophenyl)-4-hexyl-2,4-dihydro-3H-1,2,4-triazole-3-thione] | 22.28 ± 1.03 µg/mL (≈ 75.3 µM) |  | 9.9% | 98.82 ± 2.84% | non-toxic | non-toxic |  |  | 
CCCCCCn1c(Cc2cccc(Cl)c2)n[nH]c1=S [TP-427, 5-(3-chlorobenzyl)-4-hexyl-2,4-dihydro-3H-1,2,4-triazole-3-thione] | 30.92 ± 1.11 µg/mL (≈ 99.8 µM) | > 100000 nM | 16.5% | 98.53 ± 4.18% | non-toxic | non-toxic | > 1000 mg/kg | >1000 mg/kg | >1000 mg/kg
